The results in this text go back to patent US10669284B2, “Fused thiazolopyrimidine derivatives as MNKS inhibitors” (LIFEARC, priority 2015, dated 2020).

In one assay the target is T1, Full-length human MNK1 (Homo sapiens, UniProt Q9BUB5, T385D).
T1 construct: GST (N); purchased Carna Biosciences 02-145; host or cells: baculovirus expression system
In words: MNK1 biochemical IC50 assay (Caliper Mobility Shift Assay).

The next assay has as its target BLK (Homo sapiens, UniProt P51451). In words: Kinase selectivity screen BLK. The following applies: read-out: % inhibition of BLK.
A further assay concerns the target BTK (Homo sapiens, UniProt Q06187). In words: Kinase selectivity screen BTK. The following applies: read-out: % inhibition of BTK.
Another assay has as its target LCK (Homo sapiens, UniProt P06239). As to the kind of experiment: Kinase selectivity screen LCK. The following applies: read-out: % inhibition of LCK.
A further assay deals with PLK1 (Homo sapiens, UniProt P53350). As to the kind of experiment: Kinase selectivity screen PLK1. The following applies: read-out: % inhibition of PLK1.
Another assay concerns the target PAK1 (Homo sapiens, UniProt Q13153). In words: Kinase selectivity screen PAK1. The following applies: read-out: % inhibition of PAK1.
The next assay concerns the target ABL2 (Homo sapiens, UniProt P42684). In words: Kinase selectivity screen ABL2. The following applies: read-out: % inhibition of ABL2.
For the next assay, the target named is T2, NUAK1 (Homo sapiens, UniProt O60285).
T2 sequence (O60285 1-661): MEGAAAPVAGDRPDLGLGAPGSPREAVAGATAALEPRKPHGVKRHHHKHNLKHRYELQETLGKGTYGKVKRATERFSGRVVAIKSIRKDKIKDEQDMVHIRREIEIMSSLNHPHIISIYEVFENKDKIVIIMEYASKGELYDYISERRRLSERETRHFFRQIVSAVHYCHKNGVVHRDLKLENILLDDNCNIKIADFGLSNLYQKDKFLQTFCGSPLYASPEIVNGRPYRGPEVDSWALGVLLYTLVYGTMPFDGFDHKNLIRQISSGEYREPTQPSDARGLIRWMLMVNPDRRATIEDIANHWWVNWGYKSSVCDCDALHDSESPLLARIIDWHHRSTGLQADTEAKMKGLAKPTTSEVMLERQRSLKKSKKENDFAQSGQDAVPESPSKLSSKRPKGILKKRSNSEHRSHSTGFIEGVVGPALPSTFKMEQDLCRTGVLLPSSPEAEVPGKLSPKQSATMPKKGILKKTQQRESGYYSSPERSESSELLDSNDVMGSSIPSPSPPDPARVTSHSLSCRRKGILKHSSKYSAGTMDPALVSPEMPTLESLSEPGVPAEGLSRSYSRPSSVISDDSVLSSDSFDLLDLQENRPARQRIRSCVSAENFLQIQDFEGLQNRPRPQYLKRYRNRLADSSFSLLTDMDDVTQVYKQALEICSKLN
As to the kind of experiment: Kinase selectivity screen NUAK1. The following applies: read-out: % inhibition of NUAK1.

The target of another assay is T3, ACVR1B (Homo sapiens, UniProt P36896).
T3 sequence (P36896 24-505): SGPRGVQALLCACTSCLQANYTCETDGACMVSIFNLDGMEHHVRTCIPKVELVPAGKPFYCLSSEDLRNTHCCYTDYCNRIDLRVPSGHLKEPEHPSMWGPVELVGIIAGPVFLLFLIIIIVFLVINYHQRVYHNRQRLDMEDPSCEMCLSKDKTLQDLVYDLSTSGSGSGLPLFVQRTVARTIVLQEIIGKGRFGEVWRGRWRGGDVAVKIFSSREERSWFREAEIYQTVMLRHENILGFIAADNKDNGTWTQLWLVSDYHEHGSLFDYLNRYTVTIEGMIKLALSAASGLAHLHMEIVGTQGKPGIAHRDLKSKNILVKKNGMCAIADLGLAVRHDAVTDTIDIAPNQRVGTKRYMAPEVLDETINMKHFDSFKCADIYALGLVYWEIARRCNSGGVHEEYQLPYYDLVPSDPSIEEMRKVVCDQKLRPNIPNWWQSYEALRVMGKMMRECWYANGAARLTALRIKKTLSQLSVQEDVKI
In words: Kinase selectivity screen ACVR1B. The following applies: read-out: % inhibition of ACVR1B.

The next assay concerns the target MAP2K1 (Homo sapiens, UniProt Q02750). In words: Kinase selectivity screen MAP2K1. The following applies: read-out: % inhibition of MAP2K1.
Where [1] appears, read: read-out: P(IC50) MNK1 (converted).

Like-named read-outs stand apart in the source and are kept apart here.

PAK1, sequence (Q13153 whole entry): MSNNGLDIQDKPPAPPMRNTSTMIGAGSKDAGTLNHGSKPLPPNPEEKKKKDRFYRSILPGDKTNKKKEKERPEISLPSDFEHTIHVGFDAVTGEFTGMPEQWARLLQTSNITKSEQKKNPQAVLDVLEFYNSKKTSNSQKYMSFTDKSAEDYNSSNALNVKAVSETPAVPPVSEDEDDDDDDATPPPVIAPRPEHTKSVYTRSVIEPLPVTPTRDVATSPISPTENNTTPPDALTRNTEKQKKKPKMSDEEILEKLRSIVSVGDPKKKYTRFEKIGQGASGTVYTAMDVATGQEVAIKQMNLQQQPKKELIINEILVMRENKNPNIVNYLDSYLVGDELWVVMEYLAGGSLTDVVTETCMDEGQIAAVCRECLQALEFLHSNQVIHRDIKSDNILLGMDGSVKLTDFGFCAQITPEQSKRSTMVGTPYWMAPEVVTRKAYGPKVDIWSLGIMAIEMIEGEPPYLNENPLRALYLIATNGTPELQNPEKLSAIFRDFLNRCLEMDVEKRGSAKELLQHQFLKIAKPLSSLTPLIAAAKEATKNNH
ABL2, sequence (P42684 whole entry, species assumed): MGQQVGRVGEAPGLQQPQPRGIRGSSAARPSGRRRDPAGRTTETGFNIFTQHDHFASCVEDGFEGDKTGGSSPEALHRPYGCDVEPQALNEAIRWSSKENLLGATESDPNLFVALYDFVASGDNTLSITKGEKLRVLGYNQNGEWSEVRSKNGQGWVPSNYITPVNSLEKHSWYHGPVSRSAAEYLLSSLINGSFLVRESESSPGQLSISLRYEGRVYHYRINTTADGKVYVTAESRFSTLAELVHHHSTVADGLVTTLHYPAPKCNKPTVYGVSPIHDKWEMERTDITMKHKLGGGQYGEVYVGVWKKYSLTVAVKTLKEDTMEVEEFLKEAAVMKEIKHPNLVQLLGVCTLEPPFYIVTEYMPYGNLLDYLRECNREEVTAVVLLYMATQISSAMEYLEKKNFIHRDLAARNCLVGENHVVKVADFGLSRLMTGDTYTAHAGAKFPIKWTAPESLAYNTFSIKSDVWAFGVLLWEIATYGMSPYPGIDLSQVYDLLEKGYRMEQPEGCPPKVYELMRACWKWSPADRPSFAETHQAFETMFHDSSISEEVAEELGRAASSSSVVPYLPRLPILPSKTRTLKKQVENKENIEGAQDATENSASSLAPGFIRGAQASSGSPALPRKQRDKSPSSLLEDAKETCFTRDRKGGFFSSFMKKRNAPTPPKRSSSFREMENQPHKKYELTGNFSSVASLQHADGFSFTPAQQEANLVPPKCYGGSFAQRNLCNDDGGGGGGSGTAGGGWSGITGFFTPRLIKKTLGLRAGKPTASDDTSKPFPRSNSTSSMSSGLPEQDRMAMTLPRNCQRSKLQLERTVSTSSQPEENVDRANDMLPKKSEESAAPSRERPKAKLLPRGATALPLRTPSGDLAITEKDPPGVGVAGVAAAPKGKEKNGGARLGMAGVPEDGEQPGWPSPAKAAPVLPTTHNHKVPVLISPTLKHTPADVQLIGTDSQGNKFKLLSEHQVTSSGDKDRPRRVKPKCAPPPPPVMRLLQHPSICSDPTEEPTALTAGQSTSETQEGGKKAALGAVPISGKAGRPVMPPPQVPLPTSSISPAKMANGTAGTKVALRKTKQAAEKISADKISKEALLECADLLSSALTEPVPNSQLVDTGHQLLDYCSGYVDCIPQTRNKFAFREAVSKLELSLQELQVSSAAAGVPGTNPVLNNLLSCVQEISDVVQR
BTK, sequence (Q06187 whole entry, species assumed): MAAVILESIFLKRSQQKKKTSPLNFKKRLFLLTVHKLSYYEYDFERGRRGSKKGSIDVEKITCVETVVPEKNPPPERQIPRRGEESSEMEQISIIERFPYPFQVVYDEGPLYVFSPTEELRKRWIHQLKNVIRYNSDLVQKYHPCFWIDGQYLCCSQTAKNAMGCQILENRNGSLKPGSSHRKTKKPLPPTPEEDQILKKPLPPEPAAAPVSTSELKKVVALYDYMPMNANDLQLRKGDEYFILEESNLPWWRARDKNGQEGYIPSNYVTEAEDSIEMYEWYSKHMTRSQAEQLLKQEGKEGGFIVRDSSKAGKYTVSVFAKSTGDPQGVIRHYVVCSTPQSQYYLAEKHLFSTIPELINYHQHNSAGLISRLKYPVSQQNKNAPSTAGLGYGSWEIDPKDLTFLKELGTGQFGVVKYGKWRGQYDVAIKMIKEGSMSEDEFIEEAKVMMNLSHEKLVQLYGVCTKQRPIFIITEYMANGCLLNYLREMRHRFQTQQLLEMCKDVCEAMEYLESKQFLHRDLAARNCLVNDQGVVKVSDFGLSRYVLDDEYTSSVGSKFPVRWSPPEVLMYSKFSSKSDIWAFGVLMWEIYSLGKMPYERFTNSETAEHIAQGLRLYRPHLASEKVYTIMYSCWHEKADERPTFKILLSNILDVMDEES
T1 sequence (Q9BUB5 1-424 isoform Q9BUB5-2 T344D): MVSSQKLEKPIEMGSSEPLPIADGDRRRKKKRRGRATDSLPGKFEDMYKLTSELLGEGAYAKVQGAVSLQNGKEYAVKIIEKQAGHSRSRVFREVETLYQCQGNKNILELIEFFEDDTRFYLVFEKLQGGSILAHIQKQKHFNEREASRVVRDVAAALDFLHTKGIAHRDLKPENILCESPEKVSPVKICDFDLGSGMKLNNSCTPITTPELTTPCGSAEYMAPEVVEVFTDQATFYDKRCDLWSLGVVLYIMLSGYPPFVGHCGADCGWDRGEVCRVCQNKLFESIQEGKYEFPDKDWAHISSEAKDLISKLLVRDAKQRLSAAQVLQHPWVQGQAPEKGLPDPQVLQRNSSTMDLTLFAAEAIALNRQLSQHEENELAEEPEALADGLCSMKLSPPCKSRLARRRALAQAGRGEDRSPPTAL
PLK1, sequence (P53350 whole entry, species assumed): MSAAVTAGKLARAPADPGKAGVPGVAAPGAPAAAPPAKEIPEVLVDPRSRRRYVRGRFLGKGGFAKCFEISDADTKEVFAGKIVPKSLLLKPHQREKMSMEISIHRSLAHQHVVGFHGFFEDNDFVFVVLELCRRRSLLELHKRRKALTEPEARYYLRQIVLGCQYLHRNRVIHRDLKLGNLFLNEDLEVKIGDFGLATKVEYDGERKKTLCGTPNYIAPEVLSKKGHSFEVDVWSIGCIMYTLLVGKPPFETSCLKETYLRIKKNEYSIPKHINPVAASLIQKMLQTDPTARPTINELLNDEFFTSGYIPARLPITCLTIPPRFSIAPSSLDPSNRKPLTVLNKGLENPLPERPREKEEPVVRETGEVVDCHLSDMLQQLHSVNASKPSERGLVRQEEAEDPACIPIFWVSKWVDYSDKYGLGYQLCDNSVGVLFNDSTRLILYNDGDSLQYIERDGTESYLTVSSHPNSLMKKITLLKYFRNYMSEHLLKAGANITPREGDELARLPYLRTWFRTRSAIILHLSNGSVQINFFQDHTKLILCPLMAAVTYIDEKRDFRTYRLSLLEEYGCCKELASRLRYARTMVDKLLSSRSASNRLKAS
BLK, sequence (P51451 whole entry, species assumed): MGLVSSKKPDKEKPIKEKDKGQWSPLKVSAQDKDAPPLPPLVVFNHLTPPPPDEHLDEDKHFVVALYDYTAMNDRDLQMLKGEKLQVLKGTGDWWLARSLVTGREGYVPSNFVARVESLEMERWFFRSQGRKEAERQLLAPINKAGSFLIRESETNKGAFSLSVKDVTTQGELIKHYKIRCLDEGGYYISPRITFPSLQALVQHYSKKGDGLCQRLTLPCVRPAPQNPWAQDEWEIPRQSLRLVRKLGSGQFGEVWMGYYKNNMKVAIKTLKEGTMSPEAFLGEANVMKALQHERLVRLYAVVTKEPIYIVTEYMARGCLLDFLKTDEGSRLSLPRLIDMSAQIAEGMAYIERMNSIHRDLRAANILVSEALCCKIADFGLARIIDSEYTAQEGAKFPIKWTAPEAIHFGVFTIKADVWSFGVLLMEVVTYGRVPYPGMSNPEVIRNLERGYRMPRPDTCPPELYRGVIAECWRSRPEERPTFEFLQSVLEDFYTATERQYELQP
MAP2K1, sequence (Q02750 whole entry, species assumed): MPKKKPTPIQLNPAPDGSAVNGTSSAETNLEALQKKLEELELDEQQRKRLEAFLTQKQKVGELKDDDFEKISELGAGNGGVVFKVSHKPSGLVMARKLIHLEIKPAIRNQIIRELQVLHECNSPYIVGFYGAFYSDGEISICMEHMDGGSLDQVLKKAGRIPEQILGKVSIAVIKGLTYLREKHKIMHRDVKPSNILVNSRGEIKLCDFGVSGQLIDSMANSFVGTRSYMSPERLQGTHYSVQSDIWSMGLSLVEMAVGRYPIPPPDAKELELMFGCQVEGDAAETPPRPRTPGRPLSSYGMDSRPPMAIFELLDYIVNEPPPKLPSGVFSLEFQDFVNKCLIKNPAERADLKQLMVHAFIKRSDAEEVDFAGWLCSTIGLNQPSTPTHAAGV
LCK, sequence (P06239 whole entry, species assumed): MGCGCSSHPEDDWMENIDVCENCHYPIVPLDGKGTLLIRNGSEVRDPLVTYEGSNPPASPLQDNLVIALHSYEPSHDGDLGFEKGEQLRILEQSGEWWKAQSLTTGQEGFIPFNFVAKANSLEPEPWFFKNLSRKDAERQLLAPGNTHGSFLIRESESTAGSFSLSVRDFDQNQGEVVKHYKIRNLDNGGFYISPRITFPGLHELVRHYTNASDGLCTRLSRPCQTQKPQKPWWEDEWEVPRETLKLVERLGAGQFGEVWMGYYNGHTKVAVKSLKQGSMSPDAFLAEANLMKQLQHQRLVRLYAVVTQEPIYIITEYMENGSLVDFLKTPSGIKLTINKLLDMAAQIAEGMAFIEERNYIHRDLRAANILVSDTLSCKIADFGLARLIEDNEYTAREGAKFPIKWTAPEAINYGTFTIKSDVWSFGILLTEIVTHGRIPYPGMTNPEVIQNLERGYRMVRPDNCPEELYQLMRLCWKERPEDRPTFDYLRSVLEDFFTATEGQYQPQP

As for `CN(C)CCCNC(=O)c1nc2c(N3CCc4cc(F)ccc43)ncnc2s1` [Example 64, N-[3-(dimethylamino)propyl]-7-(5-fluoroindolin-1-yl)thiazolo[5,4-d]pyrimidine-2-carboxamide], the IC50 at Full-length human MNK1 (setting [1]) was 2.51 nM. For the same molecule, the inhibition at 1 µM on BLK was found to be 1%; at BTK, 0%; at LCK, 0%; at PLK1 it was 0%; on PAK1, 0%; at ABL2, 0%. In addition, the inhibition at 1 µM at NUAK1 is 43%; at ACVR1B, 15%; at MAP2K1, 5%.

`CC(C)Oc1cc(F)ccc1Nc1ncnc2sc(C(=O)NCC3CCNCC3)nc12` [Example 10, 7-(4-fluoro-2-isopropoxy-anilino)-N-(4-piperidylmethyl)thiazolo[5,4-d]pyrimidine-2-carboxamide]: the IC50 on Full-length human MNK1 was 50.1 nM. Also, the inhibition at 1 µM was determined as 18% on BLK; 6% on BTK; 12% at LCK; 0% on PLK1; 0% on PAK1; 0% on ABL2. The values for the inhibition at 1 µM at NUAK1, on ACVR1B and on MAP2K1 were 15%, 6% and 0%, respectively.

`O=C(NCC1CCNCC1)c1nc2c(N3CCc4cc(F)ccc43)ncnc2s1` [Example 58, 7-(5-fluoroindolin-1-yl)-N-(4-piperidylmethyl)thiazolo[5,4-d]pyrimidine-2-carboxamide]: on Full-length human MNK1 (setting [1]), the IC50 is 5.01 nM. Also, the inhibition at 1 µM on BLK is 0%; at BTK, 9%; on LCK, 0%; at PLK1, 1%; on PAK1, 9%; at ABL2 it was 0%. In addition, the inhibition at 1 µM on NUAK1 is 33%; on ACVR1B, 0%; at MAP2K1 it was 7%.
